One block for each molecule: values may come before it.
Columns and labels:
recombinant human EPPIN = target: T1, recombinant human EPPIN (Homo sapiens, UniProt O95925); experiment: Epitope ALPHA (AlphaScreen) assay, EPPIN / anti-EPPIN antibody binding; conditions: EPPIN on donor beads, anti-EPPIN antibody on acceptor beads
T1 construct: made in house; host or cells: E. coli strain OrigamiB-DE3-pLysS
From the text: Two assays for high throughput screening (HTS) of compounds have been established and validated. In one embodiment, these assays are based on an adaptation of the AlphaScreen™ assay developed by PerkinElmer (Waltham, MA). In the AlphaScreen™ (amplified luminescent proximity homogeneous assay) assay donor and acceptor beads (˜200 nm) are employed to hold interacting protein molecules. When the interacting protein molecules bind (for example EPPIN {on the donor bead} and anti-EPPIN {on the acceptor bead}), single state oxygen molecules diffuse from the donor bead to the acceptor bead (˜4 μsec) and fluorophores subsequently emit light at 520-620 nm. In the primary compound screen, histidine-tagged recombinant human EPPIN is attached to NTA-donor beads and anti-EPPIN (S21C; against the EPPIN C-terminal domain) is attached to protein A-acceptor beads. This epitope specific assay gives strong and stable binding between EPPIN and the antibody.
Briefly, recombinant histidine-tagged recombinant EPPIN was pre-incubated with Ni-NTA chelate donor beads (catalog number AS101, Perkin Elmer, Waltham MA) and anti-Eppin 007 or anti-Eppin Q20E antibody was pre-incubated with Protein A acceptor beads (catalog number 6760136, Perkin Elmer, Waltham MA) for 30 minutes. Equal volumes of donor and acceptor bead mixtures were pipetted into white opaque 384-well microplates (OptiPlate-384; PerkinElmer, Waltham, MA) in a final volume of 30 μL. Plates were covered with top seal and transferred to a Synergy HTS Multiplatform automated plate reader (Biotek, Winooski, VT). After shaking for 2 min, plates were read with an excitation 680/30 filter, an emission 570/100 filter and data acquired using Gen5 software (Biotek). Each set of samples was pipetted in 4 replicates. The final concentration of assay components was 58 nM EPPIN, 2 nM anti-Eppin 007 or Q20E antibody, 5 μg/ml donor beads and 10 μg/ml acceptor beads in 0.1M Tris pH=8, 0.1% bovine serum albumin and 0.01% Tween-20. Negative controls were performed under the same conditions in the absence of EPPIN or antibody and in the presence of beads only. The antibody 007 used in this assay binds the same epitope that binds the EP055 compound so the two entities compete for binding to EPPIN. Q20E binds the n-terminal part of EPPIN.
Non-specific interactions of compound with assay components were measured at the same time with the IgG detection kit ([…] biotinylated rabbit IgG) to generate the bead interaction: 10 μg/ml donor and acceptor beads. (catalog number 6760617C, Perkin Elmer).
A specific signal for each time point was calculated by subtracting the background signal (obtained in the absence of Eppin) from its respective total signal. EC50 values for the binding of EPPIN to specific compounds were calculated by non-linear regression curve fitting using the specific signal obtained after 16 h of incubation using GraphPad Prism version 6.00 for Windows (GraphPad Software, La Jolla California USA, www.graphpad.com).

human sperm motility = experiment: live sperm computer-assisted sperm analysis (CASA) assay; assay type: cell-based; conditions: for inhibitory activity in the CASA sperm motility assay: human spermatozoa
Procedure: In another embodiment, a computer-assisted sperm analysis (CASA) can be used as a live cell compound screen for determining the effect of compounds on human sperm motility. Additionally, to facilitate the EC50 evaluation of compounds using different ejaculates, reducing inter-assay variation due to differences in sperm quality in different semen samples, an index of relative motility inhibition (RMI) was developed. This is calculated as: RMI=[% motility*VSL]; percentage of motile sperm (% motility) or the percentage of progressively motile sperm (% progressive motility, RPMI) multiplied by the straight-line velocity (VSL); the average velocity measured in a straight line from the beginning to the end of a track in μm/sec. Normalized RMI can be calculated by dividing the RMI of each experimental condition by its respective DMSO control.
The live-sperm Computer Assisted Sperm Analysis (CASA) Assays were done as follows.
Human semen samples were obtained from the Department of Obstetrics and Gynecology, University of North Carolina Memorial Hospital, Chapel Hill, NC. […] Semen samples were allowed to liquefy for 30 minutes and subjected to standard semen analysis to determine acceptability before freezing. All samples were stored in liquid nitrogen, and de-identified by the Department of Obstetrics and Gynecology, University of North Carolina Memorial Hospital, Chapel Hill, NC before further processing. A density gradient (SpermCare catalog number 2221 and 2222, InvitroCare Inc., Frederick MD) was used to prepare spermatozoa for further analysis. At least 3 independent experiments were done per assay, each using several pooled samples from a single donor. Briefly sperm were washed after the density gradient with EP buffer-0.4% human serum albumin and resuspended in the same buffer for compound treatments. Sperm were diluted to 5×10^6/mL in 12×75 mm glass tubes with the appropriate treatment and incubated at 37° C. in 5% CO2. For CASA analysis, sperm were loaded onto slides (CellVison 4 chamber (20 μM), catalog number CV-1020-4CV, Fertility Technology Resources, Murphy NC) and warmed to 37° C. before analysis. Videos of sperm motility were collected using a Nikon ECLIPSE TS2-FL inverted microscope with 10× eyepiece and a 10× negative phase contrast objective and a Basler high speed camera (1280×1024 px, 200 fps, USB 3, CMOS). AVI Videos were analyzed using OpenCASA software (version 2). Units for CASA parameters are as follows: VAP (average path velocity), VSL (straight line velocity), and VCL (curvilinear velocity)=μm/sec (microns/sec); ALH (lateral head amplitude)=μm; BCF (beat cross-frequency)=Hz. The relative mobility index (RMI) is a measure of the effect of compound on sperm and is calculated as the VSL x % normal motility and normalized to the appropriate DMSO control.

T1 sequence (O95925 22-133): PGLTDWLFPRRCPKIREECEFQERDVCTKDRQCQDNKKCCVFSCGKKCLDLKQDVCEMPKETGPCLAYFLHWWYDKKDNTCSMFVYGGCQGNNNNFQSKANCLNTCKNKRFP

- inhibitory activity in the epitope ALPHA assay (recombinant human EPPIN): inhibitory activity
Molecule: COC(=O)NNc1nc(Nc2ccc(NC(C)=O)c(O)c2)nc(SCCCC(=O)O)n1 [EP096, 4-((4-((4-acetamido-3-hydroxyphenyl)amino)-6-(2(methoxycarbonyl)hydrazineyl)-1,3,5-triazin-2-yl)thio)butanoic acid]
- inhibitory activity in the CASA sperm motility assay (human sperm motility): inhibitory activity

- inhibitory activity in the epitope ALPHA assay (recombinant human EPPIN): inhibitory activity
Molecule: CO/N=C/c1ccc(Cc2cc(NNC(=O)OC)cc(SCCC(=O)OC)n2)cc1O [EP103, methyl 3-{[6-({3-hydroxy-4-[(1E)-(methoxyimino)methyl]phenyl}methyl)-4-{[(methoxycarbonyl)amino]amino}pyridin-2-yl]sulfanyl}propanoate]
- inhibitory activity in the CASA sperm motility assay (human sperm motility): inhibitory activity

- inhibitory activity in the epitope ALPHA assay (recombinant human EPPIN): inhibitory activity
Molecule: COC(=O)CCSc1cc(NNC(=O)OC)nc(Cc2ccc(NC(C)=O)c(O)c2)n1 [EP100, methyl 3-({2-[(4-acetamido-3-hydroxyphenyl)methyl]-6-{[(methoxycarbonyl)amino]amino}pyrimidin-4-yl}sulfanyl)propanoate]
- inhibitory activity in the CASA sperm motility assay (human sperm motility): inhibitory activity

- inhibitory activity in the epitope ALPHA assay (recombinant human EPPIN): inhibitory activity
Molecule: COC(=O)NNc1nc(Nc2ccc(NC(C)=O)c(O)c2)nc(SCCC(=O)O)n1 [EP083, 3-((4-((4-acetamido-3-hydroxyphenyl)amino)-6-(2-(methoxycarbonyl)hydrazineyl)-1,3,5-triazin-2-yl)thio)propanoic acid]
- inhibitory activity in the CASA sperm motility assay (human sperm motility): inhibitory activity

- inhibitory activity in the epitope ALPHA assay (recombinant human EPPIN): inhibitory activity
Molecule: CO/N=C/c1ccc(Cc2cc(NNC(=O)OC)cc(SCCC(=O)O)n2)cc1O [EP104, 3-{[6-({3-hydroxy-4-[(1E)-(methoxyimino)methyl]phenyl}methyl)-4-{[(methoxycarbonyl)amino]amino}pyridin-2-yl]sulfanyl}propanoic acid]
- inhibitory activity in the CASA sperm motility assay (human sperm motility): inhibitory activity

- inhibitory activity in the epitope ALPHA assay (recombinant human EPPIN): inhibitory activity
Molecule: COC(=O)CCSc1nc(NNC(=O)OC)nc(Nc2ccc(NC(C)=O)c(O)c2)n1 [EP082, methyl 3-({4-[(4-acetamido-3-hydroxyphenyl)amino]-6-{[(methoxycarbonyl)amino]amino}-1,3,5-triazin-2-yl}sulfanyl)propanoate]
- inhibitory activity in the CASA sperm motility assay (human sperm motility): inhibitory activity

- inhibitory activity in the epitope ALPHA assay (recombinant human EPPIN): inhibitory activity
Molecule: COC(=O)CCCSc1nc(NNC(=O)OC)nc(Nc2ccc(NC(C)=O)c(O)c2)n1 [EP098, methyl 4-({4-[(4-acetamido-3-hydroxyphenyl)amino]-6-{[(methoxycarbonyl)amino]amino}-1,3,5-triazin-2-yl}sulfanyl)butanoate]
- inhibitory activity in the CASA sperm motility assay (human sperm motility): inhibitory activity

- inhibitory activity in the epitope ALPHA assay (recombinant human EPPIN): inhibitory activity
Molecule: COC(=O)NNc1nc(Nc2ccc(NC(C)=O)c(O)c2)nc(SCCC(C)=O)n1 [EP091, methyl 2-(4-((4-acetamido-3-hydroxyphenyl)amino)-6-((3-oxobutyl)thio)-1,3,5-triazin-2-yl) hydrazine-1-carboxylate]
- inhibitory activity in the CASA sperm motility assay (human sperm motility): inhibitory activity

- inhibitory activity in the epitope ALPHA assay (recombinant human EPPIN): inhibitory activity
Molecule: COC(=O)CCSc1cc(NNC(=O)OC)cc(Cc2ccc(CC(C)=O)c(O)c2)n1 [EP101, methyl 3-[(6-{[3-hydroxy-4-(2-oxopropyl)phenyl]methyl}-4-{[(methoxycarbonyl)amino]amino}pyridin-2-yl)sulfanyl]propanoate]
- inhibitory activity in the CASA sperm motility assay (human sperm motility): inhibitory activity

- inhibitory activity in the epitope ALPHA assay (recombinant human EPPIN): inhibitory activity
Molecule: CO/N=C/c1ccc(Cc2nc(NNC(=O)OC)cc(SCCC(=O)OC)n2)cc1O [EP102, methyl 3-{[2-({3-hydroxy-4-[(1E)-(methoxyimino)methyl]phenyl}methyl)-6-{[(methoxycarbonyl)amino]amino}pyrimidin-4-yl]sulfanyl}propanoate]
- inhibitory activity in the CASA sperm motility assay (human sperm motility): inhibitory activity

- EC50 (human sperm motility; inhibiting sperm motility and impairing proper function, read-out: calculated EC50 value for inhibiting sperm motility): 8.8 µM
B1: SEMG1: semenogelin, seminal vesicle protein that binds EPPIN on sperm and inhibits progressive motility (protein, UniProt P04279 24-462, looked up)
Semenogelin-1: QKGGSKGRLPSEFSQFPHGQKGQHYSGQKGKQQTESKGSFSIQYTYHVDANDHDQSRKSQQYDLNALHKTTKSQRHLGGSQQLLHNKQEGRDHDKSKGHFHRVVIHHKGGKAHRGTQNPSQDQGNSPSGKGISSQYSNTEERLWVHGLSKEQTSVSGAQKGRKQGGSQSSYVLQTEELVANKQQRETKNSHQNKGHYQNVVEVREEHSSKVQTSLCPAHQDKLQHGSKDIFSTQDELLVYNKNQHQTKNLNQDQQHGRKANKISYQSSSTEERRLHYGENGVQKDVSQSSIYSQTEEKAQGKSQKQITIPSQEQEHSQKANKISYQSSSTEERRLHYGENGVQKDVSQRSIYSQTEKLVAGKSQIQAPNPKQEPWHGENAKGESGQSTNREQDLLSHEQKGRHQHGSHGGLDIVIIEQEDDSDRHLAQHLNNDRNPLFT

— patent US20230390298A1, “METHOD AND COMPOSITIONS FOR USE IN PROVIDING MALE CONTRACEPTION” (Eppin Pharma, Inc., priority 2022, published 2023)
